According to patent US20170223995A1, “Sweetener Blend Compositions” (The Coca-Cola Company, priority 2011, published 2017):

Test: Multi-sip and swallow taste test by a trained taste tester
Type: in vivo
Procedure: Multi-Sip and Swallow Test Method
A sip (approximately 2.0-5.0 mL) of a sample was swallowed by a trained taste tester. After allowing a 15-25 second interval to pass, a second sip of the sample is tasted and swallowed. This process is repeated as needed to determine the taste properties. The taste properties are then recorded by the trained taste tester. Preferably no more than ten samples are tested per day to avoid taste fatigue. Each sample was taken at least 1.5 hours following eating or drinking.

[1] = 500 ppm in carbon-treated water
[2] = as restated in the Discussion, out of highest five
[3] = 100,000 ppm in carbon-treated water

| Compound | bitterness intensity [1] | sugar-like tasting quality [1] | sweetness intensity [1] | sweetness linger [1] | sweetness onset [1] | sweetness linger [2] | bitterness intensity [3] | sugar-like tasting quality [3] | sweetness intensity [3] | sweetness linger [3] | sweetness (in words, compared with rebaudioside A) (Discussion) | sugar-like tasting quality (in words, comparison) (text remarks, comparison with rebaudioside A) |
| --- | --- | --- | --- | --- | --- | --- | --- | --- | --- | --- | --- | --- |
| C=C1C[C@@]23CC[C@H]4[C@@](C)(CCC[C@@]4(C)C(=O)O)[C@@H]2CC[C@]1(O[C@@H]1O[C@H](CO)[C@@H](O)[C@H](O)[C@H]1O[C@@H]1O[C@H](CO)[C@@H](O)[C@H](O)[C@H]1O)C3 [steviolbioside] | no bitterness | 2 out of 5 | 5 out of 10 | 3 out of 5 | slow sweetness onset |  |  |  |  |  |  |  |
| C=C1C[C@@]23CC[C@H]4[C@@](C)(CCC[C@@]4(C)C(=O)O[C@@H]4O[C@H](CO)[C@@H](O)[C@H](O)[C@H]4O)[C@@H]2CC[C@]1(O[C@@H]1O[C@H](CO)[C@@H](O)[C@H](O[C@@H]2O[C@H](CO)[C@@H](O)[C@H](O)[C@H]2O)[C@H]1O[C@@H]1O[C@H](CO)[C@@H](O)[C@H](O)[C@H]1O)C3 [rebaudioside A] | 4 out of 5 | 0 out of 5 | 5 out of 10 | 5 out of 5 |  | 5 |  |  |  |  |  |  |
| C=C1C[C@@]23CC[C@H]4[C@@](C)(CCC[C@@]4(C)C(=O)O[C@@H]4O[C@H](CO)[C@@H](O)[C@H](O)[C@H]4O)[C@@H]2CC[C@]1(O[C@@H]1O[C@H](CO)[C@@H](O)[C@H](O)[C@H]1O[C@@H]1O[C@H](CO)[C@@H](O)[C@H](O)[C@H]1O)C3 [stevioside] | 5 out of 5 | 0 out of 5 | 5 out of 10 | 5 out of 5 |  |  |  |  |  |  |  |  |
| rebaudioside B | 0 out of 5 | 3 out of 5 | 2 out of 10 | 3 out of 5 |  | 3 |  |  |  |  |  |  |
| OC[C@H]1O[C@@](CO)(O[C@H]2O[C@H](CO)[C@@H](O)[C@H](O)[C@H]2O)[C@@H](O)[C@@H]1O [sugar] |  |  |  |  |  |  | 0 | 5 | 10 | 0 |  |  |
| C=C1C[C@@]23CC[C@H]4[C@@](C)(CCC[C@@]4(C)C(=O)O[C@@H]4O[C@H](CO)[C@@H](O)[C@H](O)[C@H]4O[C@@H]4O[C@H](CO)[C@@H](O)[C@H](O)[C@H]4O)[C@@H]2CC[C@]1(O[C@@H]1O[C@H](CO)[C@@H](O)[C@H](O[C@@H]2O[C@H](CO)[C@@H](O)[C@H](O)[C@H]2O)[C@H]1O[C@@H]1O[C@H](CO)[C@@H](O)[C@H](O)[C@H]1O)C3 [rebaudioside D] |  |  |  |  |  | 5 |  |  |  |  | less sweetness | slightly more sugar-like taste quality |
